{"source": "patent US9028858B2", "about": "(Coloplast A/S, priority 2003, dated 2015)", "settings": "for %-point H2O2 after storage / Appearance of catheter (0–5; 0 = perfect, 5 = unacceptable) / Appearance of swelling medium (0–5) / Loss of H2O2 (%/day) / pH after storage: 1 week", "key": {"[1]": {"settings": "initial 0.2%-point H2O2, 60° C., no PEG 2000"}, "[2]": {"settings": "initial 0.2%-point H2O2, 80° C., no PEG 2000"}, "[3]": {"settings": "initial 0.4%-point H2O2, 60° C., no PEG 2000"}, "[4]": {"settings": "initial 0.4%-point H2O2, 80° C., no PEG 2000"}, "[5]": {"settings": "initial 0.8%-point H2O2, 60° C., no PEG 2000"}, "[6]": {"settings": "initial 0.8%-point H2O2, 80° C., no PEG 2000"}, "[7]": {"settings": "initial 1.6%-point H2O2, 60° C., 6% PEG 2000"}, "[8]": {"settings": "initial 1.6%-point H2O2, 60° C., no PEG 2000"}, "[9]": {"settings": "initial 1.6%-point H2O2, 80° C., 6% PEG 2000"}, "[10]": {"settings": "initial 1.6%-point H2O2, 80° C., no PEG 2000"}}, "note": "Like-named read-outs stand apart in the source and are kept apart here."}
{"molecule": "OO", "note": "[Std H2O2, hydrogen peroxide]", "values": [{"measurement": "H2O2 disappeared during storage", "setting": "1 week at 80° C., samples not containing PEG 2000, regardless of initial H2O2 concentration", "result": "25-30%"}, {"measurement": "%-point H2O2 after storage", "setting": "[1]", "result": 0.20, "unit": "%-point"}, {"measurement": "Appearance of catheter (0–5; 0 = perfect, 5 = unacceptable)", "setting": "[1]", "result": 0}, {"measurement": "Appearance of swelling medium (0–5)", "setting": "[1]", "result": 0}, {"measurement": "Loss of H2O2 (%/day)", "setting": "[1]", "result": 0.3, "unit": "%/day"}, {"measurement": "pH after storage", "setting": "[1]", "result": 5.64}, {"measurement": "%-point H2O2 after storage", "setting": "[2]", "result": 0.15, "unit": "%-point"}, {"measurement": "Appearance of catheter (0–5; 0 = perfect, 5 = unacceptable)", "setting": "[2]", "result": 0}, {"measurement": "Appearance of swelling medium (0–5)", "setting": "[2]", "result": 0}, {"measurement": "Loss of H2O2 (%/day)", "setting": "[2]", "result": 3.5, "unit": "%/day"}, {"measurement": "pH after storage", "setting": "[2]", "result": 5.63}, {"measurement": "%-point H2O2 after storage", "setting": "[3]", "result": 0.37, "unit": "%-point"}, {"measurement": "Appearance of catheter (0–5; 0 = perfect, 5 = unacceptable)", "setting": "[3]", "result": 0}, {"measurement": "Appearance of swelling medium (0–5)", "setting": "[3]", "result": 0}, {"measurement": "Loss of H2O2 (%/day)", "setting": "[3]", "result": 1.0, "unit": "%/day"}, {"measurement": "pH after storage", "setting": "[3]", "result": 5.63}, {"measurement": "%-point H2O2 after storage", "setting": "[4]", "result": 0.29, "unit": "%-point"}, {"measurement": "Appearance of catheter (0–5; 0 = perfect, 5 = unacceptable)", "setting": "[4]", "result": 0}, {"measurement": "Appearance of swelling medium (0–5)", "setting": "[4]", "result": 0}, {"measurement": "Loss of H2O2 (%/day)", "setting": "[4]", "result": 3.8, "unit": "%/day"}, {"measurement": "pH after storage", "setting": "[4]", "result": 5.79}, {"measurement": "%-point H2O2 after storage", "setting": "[5]", "result": 0.75, "unit": "%-point"}, {"measurement": "Appearance of catheter (0–5; 0 = perfect, 5 = unacceptable)", "setting": "[5]", "result": 0}, {"measurement": "Appearance of swelling medium (0–5)", "setting": "[5]", "result": 0}, {"measurement": "Loss of H2O2 (%/day)", "setting": "[5]", "result": 0.9, "unit": "%/day"}, {"measurement": "pH after storage", "setting": "[5]", "result": 5.63}, {"measurement": "%-point H2O2 after storage", "setting": "[6]", "result": 0.58, "unit": "%-point"}, {"measurement": "Appearance of catheter (0–5; 0 = perfect, 5 = unacceptable)", "setting": "[6]", "result": 0}, {"measurement": "Appearance of swelling medium (0–5)", "setting": "[6]", "result": 0}, {"measurement": "Loss of H2O2 (%/day)", "setting": "[6]", "result": 4.0, "unit": "%/day"}, {"measurement": "pH after storage", "setting": "[6]", "result": 5.86}, {"measurement": "%-point H2O2 after storage", "setting": "[7]", "result": 1.25, "unit": "%-point"}, {"measurement": "Appearance of catheter (0–5; 0 = perfect, 5 = unacceptable)", "setting": "[7]", "result": 1}, {"measurement": "Appearance of swelling medium (0–5)", "setting": "[7]", "result": 0}, {"measurement": "Loss of H2O2 (%/day)", "setting": "[7]", "result": 3.2, "unit": "%/day"}, {"measurement": "pH after storage", "setting": "[7]", "result": 5.13}, {"measurement": "%-point H2O2 after storage", "setting": "[8]", "result": 1.41, "unit": "%-point"}, {"measurement": "Appearance of catheter (0–5; 0 = perfect, 5 = unacceptable)", "setting": "[8]", "result": 0}, {"measurement": "Appearance of swelling medium (0–5)", "setting": "[8]", "result": 0}, {"measurement": "Loss of H2O2 (%/day)", "setting": "[8]", "result": 1.7, "unit": "%/day"}, {"measurement": "pH after storage", "setting": "[8]", "result": 5.71}, {"measurement": "%-point H2O2 after storage", "setting": "[9]", "result": 0.02, "unit": "%-point"}, {"measurement": "Appearance of catheter (0–5; 0 = perfect, 5 = unacceptable)", "setting": "[9]", "result": 3}, {"measurement": "Appearance of swelling medium (0–5)", "setting": "[9]", "result": 0}, {"measurement": "Loss of H2O2 (%/day)", "setting": "[9]", "result": 14.1, "unit": "%/day"}, {"measurement": "pH after storage", "setting": "[9]", "result": 3.46}, {"measurement": "%-point H2O2 after storage", "setting": "[10]", "result": 1.13, "unit": "%-point"}, {"measurement": "Appearance of catheter (0–5; 0 = perfect, 5 = unacceptable)", "setting": "[10]", "result": 0}, {"measurement": "Appearance of swelling medium (0–5)", "setting": "[10]", "result": 0}, {"measurement": "Loss of H2O2 (%/day)", "setting": "[10]", "result": 4.2, "unit": "%/day"}, {"measurement": "pH after storage", "setting": "[10]", "result": 6.28}]}
